Columns and labels:
[1] = system: GALAP (catchweed bedstraw); assay: Pre-plant incorporated (PPI) herbicidal activity, cool season; format: in vivo, Galium aparine; conditions: for Percent inhibition GALAP: weed, PPI application; for PPI activity GR80, GALAP: pre-plant incorporated, lowest tested rate with 80% or greater inhibition, about 14 days
Protocol: (§1) In another set of tests, the pre-plant incorporated (PPI) activity of compounds of this invention was evaluated on the same species as for the pre-emergence tests described above. In the PPI tests the following procedure, designed to simulate PPI application, was used.
(§2) A pre-prepared topsoil mixture (described above) was placed in a pot and compacted to a depth of 1.0 to 1.25 cm from the top of the pot. Seeds of each of several monocotyledonous and dicotyledonous annual plant species were placed on top of the soil. A sufficient quantity of soil to cover the seeds and level fill the pot was weighed into an open container. A known amount of the test compound was dissolved or suspended in an organic solvent and applied by spraying to this cover soil. The cover soil was thoroughly mixed to distribute the test compound throughout the cover soil, and was then applied as a cover layer over the seeds. Untreated soil was used as a cover layer for control pots. After treatment the plants were placed in a greenhouse where they received 0.64 cm of overhead irrigation. All subsequent watering consisted of a light overhead mist and/or subirrigation as needed for germination and growth. Tables 9 and 10 below relate to warm season plant species which were placed after pre-emergence treatment in a greenhouse with a 30/21° C. day/night temperature regime. Tables 11 and 12 below relates to cool season plant species placed after pre-emergence treatment in a greenhouse or growth chamber with an 18/13° C. day/night temperature regime. Only the compounds of Examples 1, 6, 8, 11, 13 and 15-20 were included in PPI tests.
(§3) Approximately 14 days after planting and treating, the plants were observed and herbicidal efficacy recorded as percent inhibition by comparison with untreated plants.

[2] = system: LAMPU (purple deadnettle); assay: Pre-emergence herbicidal activity, cool season; format: in vivo, Lamium purpureum; conditions: lowest tested rate with 80% or greater inhibition; rates 300, 100, 30, 10 g/ha; about 14 days
Outline: (§4)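 Seeds sown in sterilised fertilised topsoil received surface-applied compound in 50:50 acetone/water, typically at 300, 100, 30 and 10 g/ha, then greenhouse-grown at 30/21° C (warm-season species) or 18/13° C (cool-season species). Percent inhibition versus untreated plants was scored at about 14 days, giving GR80; an asterisk marks activity short of 80% at the top rate.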

AMARE (redroot pigweed) = assay: Pre-emergence herbicidal activity, warm season; format: in vivo, Amaranthus retroflexus; conditions: for Pre-emergence activity (GR80) AMARE: GR80 = lowest tested rate (300, 100, 30, 10 g/ha) with 80% or greater inhibition, approx. 14 days after treating, 30/21° C.
Outline: as §4

LOLMG (annual ryegrass) [3] = assay: Pre-plant incorporated (PPI) herbicidal activity, cool season; format: in vivo, Lolium multiflorum; conditions: for Percent inhibition LOLMG: weed, PPI application; for PPI activity GR80, LOLMG: pre-plant incorporated, lowest tested rate with 80% or greater inhibition, about 14 days
Protocol: as §1, §2, §3

SETFA (giant foxtail) = assay: Pre-emergence herbicidal activity, warm season; format: in vivo, Setaria faberi; conditions: for Pre-emergence activity (GR80) SETFA: GR80 = lowest tested rate (300, 100, 30, 10 g/ha) with 80% or greater inhibition, approx. 14 days after treating, 30/21° C.
Outline: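 Activity is expressed as the rate giving 80% inhibition, with 300, 100, 30 and 10 g/ha typically tested. An asterisk marks activity short of 80% at the top rate. Warm-season grasses were held at 30/21 °C; cool-season blackgrass and wild buckwheat at 18/13 °C; scoring at about 14 days.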

LOLMG (annual ryegrass) [4] = assay: Post-emergence herbicidal activity, cool season; format: in vivo, Lolium multiflorum; conditions: abraded plants sprayed at 300, 100, 30 and 10 g/ha; about 14 days after treatment
Protocol: In another set of tests, the post-emergence activity of compounds of this invention was evaluated on the cool season species listed above. The following procedure was used.
A pre-prepared topsoil mixture (described above) was placed in a pot and compacted to a depth of 1.0 to 1.25 cm from the top of the pot. Seeds of each of several monocotyledonous and dicotyledonous annual plant species were placed on top of the soil. The seeds were covered with a mixture of 50% topsoil and 50% Rediearth™ in sufficient quantity to level-fill the pots. The pots were then placed on a greenhouse bench and subirrigated as needed.
When plants growing from the seeds had emerged and reached a suitable growth stage for post-emergence treatment, typically 9 to 14 days after planting, above-ground parts of the plants were subjected to a pre-treatment involving abrasion to create greater opportunity for foliar uptake of subsequently applied compounds. Abrasion was performed using garnet 200w particles applied with a Sears Craftsman hand-held sandblaster operated at approximately 850 kPa (50 psig) pressure.
A known amount of each test compound dissolved or suspended in an appropriate organic solvent was diluted with a 50:50 mix of acetone and water and applied to the plants by spraying with a standard spray nozzle in a spray volume of […] at a spray pressure of 511 kPa (30 psig). Only the compounds of Examples 1, 8-15 and 17-22 were included in post-emergence tests. Application rates for these compounds were 300, 100, 30 and 10 g/ha. Control plants were abraded but not sprayed.
After treatment the plants were placed in a greenhouse with an 18/13° C. day/night temperature regime and were subsequently watered as needed for growth. Approximately 14 days after treatment, the plants were observed and herbicidal efficacy recorded as percent inhibition by comparison with control plants. GR80 values were assigned for each compound as described above for the pre-emergence tests.

SMILES	Percent inhibition GALAP ([1]; 30 g/ha) [%]	Percent inhibition GALAP ([1]; 100 g/ha) [%]	Percent inhibition GALAP ([1]; 300 g/ha) [%]	Percent inhibition GALAP ([1]; 900 g/ha) [%]	Pre-emergence activity GR80, LAMPU [2] [g/ha]	Pre-emergence activity (GR80) AMARE (AMARE (redroot pigweed)) [g/ha]	Percent inhibition LOLMG (LOLMG (annual ryegrass) [3]; 30 g/ha) [%]	Percent inhibition LOLMG (LOLMG (annual ryegrass) [3]; 100 g/ha) [%]	Percent inhibition LOLMG (LOLMG (annual ryegrass) [3]; 300 g/ha) [%]	Percent inhibition LOLMG (LOLMG (annual ryegrass) [3]; 900 g/ha) [%]	Pre-emergence activity (GR80) SETFA (SETFA (giant foxtail))	PPI activity GR80, GALAP [1]	Percent inhibition GALAP ([1]; 10 g/ha) [%]	Post-emergence activity GR80, LOLMG (LOLMG (annual ryegrass) [4])	PPI activity GR80, LOLMG (LOLMG (annual ryegrass) [3])	Percent inhibition LOLMG (LOLMG (annual ryegrass) [3]; 10 g/ha) [%]	also measured
CCN(CC)C(=O)n1cnc(S(=O)(=O)C(F)(F)F)n1 [Example 2]	60	100	100	100	10	30	40	99	100	100	100 g/ha	–	–	–	–	–	–
CCN(CC)C(=O)n1cnc(S(=O)(=O)C(F)(F)SCC(=O)OC)n1 [Example 11]	0	0	20	90	100	100	40	70	99	95	–	300 g/ha	0	[empty]	[empty]	20	–
CCN(CC)C(=O)n1cnc(S(=O)(=O)C(F)(F)C(F)F)n1 [Example 16]	20	100	100	100	100	300	35	90	95	100	30 g/ha	100 g/ha	0	–	300 g/ha	45	–
CCN(CC)C(=O)n1cnc(S(=O)(=O)C(F)(F)Cl)n1 [Example 3]	100	100	100	100	100	100	40	100	100	100	100 g/ha	–	–	–	–	–	–
CCN(CC)C(=O)n1cnc(S(=O)(=O)C(F)(F)C(F)(F)SC)n1 [Example 14]	–	–	–	–	300	300	–	–	–	–	100 g/ha	–	–	[empty]	–	–	–
CCN(CC)C(=O)n1cnc(S(=O)(=O)C(F)(F)C(F)(F)Br)n1 [Example 4]	75	100	100	100	30	100	80	100	100	100	30 g/ha	–	–	–	–	–	–
CCN(CC)C(=O)n1cnc(S(=O)(=O)C(F)(F)C(=O)c2ccccc2)n1 [Example 6]	–	–	–	–	100	–	–	–	–	–	* (activity observed, at least at highest rate, but <80% inhibition)	100 g/ha	–	–	300 g/ha	–	–
C=C(CC(F)(F)S(=O)(=O)c1ncn(C(=O)N(CC)CC)n1)C[Si](C)(C)C [Example 20]	0	50	90	100	100	–	30	60	85	75	100 g/ha	[empty]	0	[empty]	* (activity observed, at least at highest rate, but <80% inhibition)	0	–
CCN(CC)C(=O)n1cnc(S(=O)(=O)C(F)(F)SCCOC)n1 [Example 13]	30	0	40	100	100	–	60	70	100	100	* (activity observed, at least at highest rate, but <80% inhibition)	300 g/ha	0	[empty]	* (activity observed, at least at highest rate, but <80% inhibition)	20	–
CCN(CC)C(=O)n1cnc(S(=O)(=O)C(F)F)n1 [Example 15, 1-(N,N-diethylcarbamoyl)-3-(difluoromethylsulfonyl)-1,2,4-triazole]	–	–	–	–	–	30	–	–	–	–	100 g/ha	30 g/ha	–	[empty]	100 g/ha	–	inhibition at 10 g/ha (AMARE (redroot pigweed); Amaranthus retroflexus, pre-emergence application, 10 g/ha, read-out: Percent inhibition, weed AMARE): 0%; inhibition at 30 g/ha (AMARE (redroot pigweed); Amaranthus retroflexus, pre-emergence application, 30 g/ha, read-out: Percent inhibition, weed AMARE): 0%; inhibition at 100 g/ha (AMARE (redroot pigweed); Amaranthus retroflexus, pre-emergence application, 100 g/ha, read-out: Percent inhibition, weed AMARE): 0%; inhibition at 300 g/ha (AMARE (redroot pigweed); Amaranthus retroflexus, pre-emergence application, 300 g/ha, read-out: Percent inhibition, weed AMARE): 40%; inhibition at 900 g/ha (AMARE (redroot pigweed); Amaranthus retroflexus, pre-emergence application, 900 g/ha, read-out: Percent inhibition, weed AMARE): 95%; inhibition at 10 g/ha (SETFA (giant foxtail); Setaria faberi, pre-emergence application, 10 g/ha, read-out: Percent inhibition, weed SETFA): 0%; inhibition at 30 g/ha (SETFA (giant foxtail); Setaria faberi, pre-emergence application, 30 g/ha, read-out: Percent inhibition, weed SETFA): 0%; inhibition at 100 g/ha (SETFA (giant foxtail); Setaria faberi, pre-emergence application, 100 g/ha, read-out: Percent inhibition, weed SETFA): 99%; inhibition at 300 g/ha (SETFA (giant foxtail); Setaria faberi, pre-emergence application, 300 g/ha, read-out: Percent inhibition, weed SETFA): 70%; inhibition at 900 g/ha (SETFA (giant foxtail); Setaria faberi, pre-emergence application, 900 g/ha, read-out: Percent inhibition, weed SETFA): 100%

Reference: patent US6461997B1, “Triazole sulfones having herbicidal activity” (Monsanto Technology LLC, priority 1999, dated 2002)
